Key:
[1] = Evaluation of conversion rate to active form in buffer solution (Experimental Example 1); format: physicochemical
In short: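 25 umol/L cpd, 37° C; 50 mM citrate pH 5.0/5.5, 50 mM phosphate pH 6.0/6.5/7.0/7.4. HPLC at 0–3 h: residual rate and Alvocidib production rate.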

[2] = Evaluation of conversion rate to active form in BALB/c mouse plasma (Experimental Example 3); format: in vitro ADME; settings: BALB/c, mouse, 0.2 μmol/L
Method: (§1) For Example 1, Example 2, Example 3, Example 4, Example 5, Example 6, Comparative Example 3, Comparative Example 4, Comparative Example 6, Comparative Example 7, Comparative Example 8, Comparative Example 9, Comparative Example 10 and Comparative Example 12, the attrition rate of the test compound and the conversion rate of the test compound to Alvocidib in human plasma and BALB/c mouse plasma were calculated by the following method.
(§2) The test compound was added to human plasma or BALB/c mouse plasma at a concentration of 0.2 μmol/L, and incubated at 37° C. The peak areas of the test compound and Alvocidib in the sample were determined by LC-MS/MS after 0, 30 and 60 minutes for Example 1, Example 2, Example 3, Example 4, Example 5 and Example 6, and after 0, 60 and 120 minutes for Comparative Example 3, Comparative Example 4, Comparative Example 6, Comparative Example 7, Comparative Example 8, Comparative Example 9, Comparative Example 10 and Comparative Example 12, and the attrition rate of the test compound and the conversion rate of the test compound to Alvocidib were calculated by the following formula. Attrition rate of test compound (%):(peak area of test compound in sample/peak area of test compound in sample after 0 minute)×100 Conversion rate to Alvocidib (%):(peak area of Alvocidib in sample/peak area of Alvocidib in reaction solution containing 0.2 μmol/L Alvocidib)×100
(§3) The measurement conditions for LC-MS/MS are as follows. • HPLC: Prominence system (Shimadzu Corporation) • MS/MS: • Example 1, Example 2, Example 3, Example 4, Example 5, Example 6, Comparative Example 8 (mouse), Comparative Example 10 (mouse) and Comparative Example 12 (mouse) • QTRAP5500 (SCIEX) • Comparative Example 6, Comparative Example 7, Comparative Example 8 (human), Comparative Example 9, Comparative Example 10 (human) and Comparative Example 12 (human) • 4000 QTRAP (SCIEX) • column: • other than Example 3 and Example 4 • Cadenza CD-C18, 3 μm, 50×2 mm (Imtakt Corporation) • Example 3 and Example 4 • Kinetex C8, 2.6 μm, 50×2.1 mm (Phenomenex) • column temperature: 40° C. • mobile phase: • A: water containing 0.1% formic acid • B: acetonitrile containing 0.1% formic acid • A/B (min): • Example 1, Example 2, Example 5, Example 6, Comparative Example 8 (mouse), Comparative Example 10 (mouse) and Comparative Example 12 (mouse) • 90/10(0)→40/60(5.0)→10/90(5.1)→10/90(6.5)→90/10(6.6)→90/10(8.0) • Example 3 and Example 4 • 86/14(0)→86/14(3.5)→10/90(5.5)→10/90(6.5)→86/14(6.6)→86/14(9.5) • Comparative Example 6, Comparative Example 7, Comparative Example 8 (human), Comparative Example 9, Comparative Example 10 (human) and Comparative Example 12 (human) • 90/10(0)→10/90(2.5)→10/90(3.5)→90/10(3.6)→90/10(5.0) • flow rate: 0.4 mL/min • detection: ESI (positive mode) • injection: 1 to 5 μL

[3] = Evaluation of conversion rate to active form in human plasma (Experimental Example 3); format: in vitro ADME; settings: human, 0.2 μmol/L
Method: as §1, §2, §3

Production rate of Alvocidib ([1]; pH7.4, 0 hr): 1.4%
Residual rate ([1]; pH7.4, 0 hr): 98.0%
Conversion to Alvocidib at pH 7.4 ([1]; pH 7.4, 37° C., up to 3 hours): slowly converted to Alvocidib
Production rate of Alvocidib ([1]; pH7.4, 0.5 hr): 1.5%
Residual rate ([1]; pH7.4, 0.5 hr): 97.5%
Production rate of Alvocidib ([1]; pH7.4, 1 hr): 1.6%
Residual rate ([1]; pH7.4, 1 hr): 97.6%
Production rate of Alvocidib ([1]; pH7.4, 2 hr): 1.8%
Residual rate ([1]; pH7.4, 2 hr): 97.6%
Production rate (%) of Alvocidib ([2]; 0 min): 2%
Residual rate (%) of test compound ([2]; 0 min): 100%
Production rate (%) of Alvocidib ([2]; 60 min): 19%
Residual rate (%) of test compound ([2]; 60 min): 85%
Production rate (%) of Alvocidib ([2]; 120 min): 27%
Residual rate (%) of test compound ([2]; 120 min): 76%
Production rate (%) of Alvocidib ([3]; 0 min): 0%
Residual rate (%) of test compound ([3]; 0 min): 100%
Production rate (%) of Alvocidib ([3]; 60 min): 23%
Residual rate (%) of test compound ([3]; 60 min): 74%
Production rate (%) of Alvocidib ([3]; 120 min): 32%
Residual rate (%) of test compound ([3]; 120 min): 58%
Structure (SMILES): CN1CC[C@H](c2c(O)cc(O)c3c(=O)cc(-c4ccccc4Cl)oc23)[C@H](OC(=O)c2ccccc2F)C1 [Comparative Example 12]

Reference: US12617779B2, “Self degradation-type CDK9 inhibitor prodrug and liposome encapsulating same” (Sumitomo Pharma Co., Ltd., priority 2021, dated 2026)
